Source: patent US20100240718A1, “NOVEL HETEROARYL-SUBSTITUTED ACETONE DERIVATIVE, SUITABLE FOR INHIBITING PHOSPHOLIPASE A2” (WESTFALISCHE WILHELMS UNIVERSITÄT MÜNSTER, priority 2007, published 2010)

How the values were obtained:
[1] = Determining water solubility in phosphate buffered saline (pH 7.4), HPLC; type: physicochemical; settings: phosphate buffered saline (PBS buffer), aqueous buffer, thermodynamic from solid; PBS buffer pH 7.4; range or bound stated jointly for the listed compounds
Experimental: The water solubility of the compounds was determined by administering aqueous phosphate buffer (pH 7.4) to each respective compound, and the dissolved amount was determined after shaking and centrifugation, as is described in example 12.
The determination of the water solubility of the compound was accomplished, if not hereinafter stated otherwise, with reference to the method published by Kim et al., J. Med. Chem. 2005, 48, 3621-3629.
The mixture was placed in an ultrasonic bath (Sonorex TK52, Bandelin) for 10 minutes and then shaken lightly in a shaking water bath (GFL 1083). Subsequently, the mixture was centrifuged for 10 minutes at 4000×g and room temperature. About 1 ml clear solution was taken from the supernatant. 200 μl of the clear solution were mixed with 250 μl acetonitrile (VWR) and 50 μl 0.1 M phosphoric acid. From this solution, a volume of between 5 μl and 100 μl was injected into an HPLC system (Waters, Waters 717plus Autos ampler, Waters 515 pump, and Waters 2487 UV detector)
For reference solution 1, 2 μl of a 5 mM solution of the respective compound in dimethyl sulfoxide (DMSO) were mixed with 198 μl PBS buffer, 250 μl acetonitrile, and 50 μl 0.1 M phosphoric acid. For reference solution 2, 2 μl of a 5 mM solution of the respective compound in DMSO were mixed with 398 μl PBS buffer, 500 μl acetonitrile, and 100 μl 0.1 M phosphoric acid.
C18 Aqua®-columns from the company Phenomenex (Aqua®, RP18, 75×4.6 mm, 3 μm) were used as the stationary phase.
were determined under corresponding conditions.

[2] = target: T1, cytosolic phospholipase A2 (Homo sapiens, UniProt P47712); test: Inhibition of cytosolic phospholipase A2 isolated from human thrombocytes (arachidonic acid release from SAPC, HPLC-UV); type: biochemical; settings: for inhibition at 0.1 µM: read-out: inhibition of the activity of cytosolic phospholipase A2 compared to the control value
T1 construct: cytosolic phospholipase A2 obtained from human thrombocytes; from tissue; host or cells: human thrombocytes (platelets)
T1 sequence (P47712 1-749): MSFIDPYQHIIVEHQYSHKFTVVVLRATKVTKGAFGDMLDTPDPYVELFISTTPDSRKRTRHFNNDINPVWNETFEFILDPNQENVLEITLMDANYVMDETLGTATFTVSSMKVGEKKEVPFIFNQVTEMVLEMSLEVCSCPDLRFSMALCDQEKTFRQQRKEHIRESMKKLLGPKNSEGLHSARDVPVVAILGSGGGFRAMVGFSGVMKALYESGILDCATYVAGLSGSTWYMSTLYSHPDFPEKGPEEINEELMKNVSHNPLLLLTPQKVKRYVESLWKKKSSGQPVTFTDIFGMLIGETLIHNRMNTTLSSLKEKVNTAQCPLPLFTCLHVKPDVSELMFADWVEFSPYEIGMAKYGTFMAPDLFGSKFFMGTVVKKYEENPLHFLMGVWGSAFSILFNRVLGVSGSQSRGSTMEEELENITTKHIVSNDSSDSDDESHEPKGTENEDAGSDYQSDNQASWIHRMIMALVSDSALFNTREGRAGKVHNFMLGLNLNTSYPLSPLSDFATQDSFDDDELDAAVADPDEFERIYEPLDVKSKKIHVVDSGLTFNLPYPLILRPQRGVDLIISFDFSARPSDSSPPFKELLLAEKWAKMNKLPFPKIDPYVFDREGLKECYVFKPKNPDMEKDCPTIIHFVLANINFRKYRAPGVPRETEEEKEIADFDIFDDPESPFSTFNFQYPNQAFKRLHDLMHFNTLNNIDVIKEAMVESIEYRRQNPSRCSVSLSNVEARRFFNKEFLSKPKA
Experimental: The effectiveness of the inventive compounds is determinable by referring to the inhibition of the cytosolic phospholipase A2. For this purpose, cytosolic phospholipase A2 that had been isolated from human thrombocytes was used.
The IC50 value of the compounds for the inhibition of cytosolic phospholipase A2 corresponds to the concentration of the compounds that is necessary to reduce the activity of the enzyme by 50%.
The IC50 values were calculated from the values of cytosolic phospholipase A2 inhibition obtained from different concentrations with the help of the Probit model (see Hartke, Mutschler, DAB 9 Kommentar Band 1 S. 733-734, Wissenschaftliche Verlagsgesellschaft Stuttgart 1978).
The effectiveness of the inventive compounds was determined based on the inhibition of cytosolic phospholipase A2. The determination was accomplished, if not described otherwise hereinafter, as was described in Schmitt, M.; Lehr, M., “HPLC assay with UV spectrometric detection for the evaluation of inhibitors of cytosolic phospholipase A2” J. Pharm. Biomed. Anal. 2004, 35, 135-142.
Cytosolic phospholipase A2 that had been isolated from human thrombocytes was used as the enzyme source.
To produce a solution of covesicles from the substrate 1-stearoyl-2-arachidonoyl-sn-glycero-3-phosphocholine (SAPC) (Sigma) and 1,2-dioleoyl-sn-glycerol (DOG) (Sigma), corresponding amounts of the chloroform solution from SAPC (10 mg/ml) and DOG (5 mg/ml) were mixed and then the chloroform was steamed away in a stream of nitrogen. The residue was mixed with enough Tris buffer ([…], 1 mM dithiothreitol, 150 mM NaCl, 1 mM CaCl2, ph 8 at 20° C.) that a concentration for SAPC of 0.26 mM and a concentration for DOG of 0.13 mM were present. The mixture was homogenized for 10 minutes in an ultrasonic bath at 35° C. for the purpose of forming covesicles.
2 μl of the solution of the respective compound in DMSO (made from a 5 mM stock solution in DMSO) or, in the case of the control value, 2 μl of DMSO, were each mixed with 78 μl of the substrate mixture in Eppendorf tubes.
After 10 minutes of preincubation in a water bath at 37° C., 20 μl of the solution of cytosolic phospholipase A2 obtained from human thrombocytes were added to each of the […] and this mixture was incubated for another 60 minutes at 37° C. The incubation preparations contained 0.20 mM SAPC and 0.10 mM DOG per 100 μl. After that, the enzyme reaction was stopped by adding 400 μl of a solution of acetronitrile/methanol/0.1 M aqueous EDTA-solution in ratios 16:15:1 (v/v/v), whereby this solution contained 3 μg/ml nordihydroguaiaretic acid (NDGA) (Sigma) as antioxidant and 1.55 μg/ml 4-undecyloxybenzoic acid as internal standard. Subsequently, the samples were placed in ice for 10 to 15 minutes and then stored at −20° C. until solid phase extraction.
The octadecyl solid phase extraction columns with a bed volume of 200 mg and a capacity of 3 ml (Baker) were initially washed with 6 ml methanol and then with 6 ml water. The samples were diluted with 2 ml 0.005 M aqueous NaOH and then introduced to the solid phase columns. […] The eluate was mixed with 600 μl water. 100 μl of this solution was injected into the HPLC apparatus (Waters, Waters 717plus Autosampler, Waters 515 pump, and Waters 2487 UV detector). Data analysis was accomplished using the software program Millennium. For the column, a Nucleosil 100-3 C18 column (125×3 mm) with a Nucleosil 100-3 C18 pre-column (20×3 mm) (CS-Chromatographie-Service, Langerwehe) was used. The flow rate was 0.4 ml/min; the detection wavelength was 200 nm. A mixture of acetonitrile/water/phosphoric acid (85%) in ratios 770:230:1 (v/v/v) was used for the flow medium. The chromatogram run time was 30 minutes. Before the next injection, the column was always equilibrated for 15 minutes.

[3] = system: contact dermatitis induced by benzalkonium chloride; test: Anti-inflammatory properties in vivo, contact dermatitis induced by benzalkonium chloride (ear swelling); settings: topical, 10 μl of a 1% solution in acetone (0.1 mg/ear), BALB/c mice, measured 1 to 72 hours
Experimental: The determination of the anti-inflammatory properties in vivo in the model of contact dermatitis induced by benzalkonium chloride was accomplished, if not stated otherwise hereinafter, according to the method published by E. Hyun et al., British Journal of Pharmacology, 2004, 143, S. 618-625.
BALB/c mice (Harlan Winkelmann GmbH, Borchen) were used as laboratory animals. A contact dermatitis was induced by introducing 10 μl per ear of a 5% benzalkonium chloride solution (Sigma) in olive oil/acetone (1:5) to the dorsal side of both ears for each of 8 lab animals per experimental group. This led to a swelling of the ears.
After 1 hour, 3 hours, 5 hours, 7 hours, 24 hours, 48 hours, and 72 hours, the ear thicknesses were measured using a digital caliper (Roth, Karlsruhe).

SMILES | solubility [1] [µg/mL] | IC50 [2] [µM] | inhibition at 0.1 µM [2] [%] | increase in ear thickness compared to the negative control [3]
CCCCCCCCc1ccc(OCC(=O)Cn2cc(C(C)=O)c3cc(C(=O)O)ccc32)cc1 [formula (10), reference compound] | < 1 |  |  | 
COC(=O)CCC(=O)c1cn(CC(=O)COc2ccc(Oc3ccc(C(F)(F)F)cc3)cc2)c2ccc(C(=O)O)cc12 [formula (5), 3-(3-methoxycarbonylpropanoyl)-1-{2-oxo-3-[4-(4-trifluormethylphenoxy)phenoxy]propyl}indole-5-carboxylic acid] | 15 to 35 | 0.022 | 30 to 97 | 
CCCCCCCCc1ccc(OCC(=O)Cn2cc(C(=O)C(F)(F)F)c3cc(C(=O)O)ccc32)cc1 [formula (6), 1-[3-(4-octylphenoxy)-2-oxopropyl]-3-(2,2,2-trifluoracetyl)indole-5-carboxylic acid] |  |  | 30 to 97 | 
O=C(O)CCC(=O)c1cn(CC(=O)COc2ccc(Oc3ccc(C(F)(F)F)cc3)cc2)c2ccc(C(=O)O)cc12 [formula (4), 3-(3-carboxypropanoyl)-1-{2-oxo-3-[4-(4-trifluormethylphenoxy)phenoxy]propyl}indole-5-carboxylic acid] | 190 to 410 | 0.19 | 30 to 97 | 
CCCCCCCCc1ccc(OCC(=O)Cn2cc(C(=O)CCCCC(=O)O)c3cc(C(=O)O)ccc32)cc1 [formula (3), 3-(5-carboxypentanoyl)-1-[3-(4-octylphenoxy)-2-oxopropyl]indole-5-carboxylic acid] |  |  |  | significantly decreased increase in ear thickness
CCCCCCCCc1ccc(OCC(=O)Cn2cc(C(=O)OC)c3cc(C(=O)O)ccc32)cc1 [formula (11), reference compound] | < 1 |  |  | 
CCCCCCCCc1ccc(OCC(=O)Cn2cc(C(=O)CCCC(=O)O)c3cc(C(=O)O)ccc32)cc1 [formula (2), 3-(4-carboxybutanoyl)-1-[3-(4-octylphenoxy)-2-oxopropyl]indole-5-carboxylic acid] |  |  | 30 to 97 | 
